According to patent US10322191B2, “Targeted conjugates and particles and formulations thereof” (TARVEDA THERAPEUTICS, INC., priority 2014, dated 2019):
Read-outs that look alike come from different tables or passages of the source.

Tested on: NCI-H524 (ATCC) human lung cancer cells
Assay type: cell-based
Conditions: for IC50: Table 15
Protocol: Conjugates were assessed in an in vitro assay evaluating inhibition of cell proliferation. NCI-H524 (ATCC) human lung cancer cells were plated in 96 well, V-bottomed plates (Costar) at a concentration of 5,000 cells/well and 24 hours later were treated with compound for 2 hours and further incubated 70 hours. Compound starting dose was 20 μM and three-fold serial dilutions were done for a total of ten points. After 2 hours of treatment, cells were spun down, the drug containing media was removed, and fresh complete medium was added and used to resuspend the cells, which were spun again. After removal of the wash media, the cells were resuspended in complete medium, then transferred into white walled, flat bottomed 96 well plates. […] Proliferation was measured using CellTiter Glo reagent using the standard protocol (Promega) and a Glomax multi+detection system (Promega). Percent proliferation inhibition was calculated using the following formula: % inhibition=(control-treatment)/control*100. Control is defined as vehicle alone. IC50 curves were generated using the nonlinear regression analysis (four parameter) with GraphPad Prism 6.
Conjugates of the present invention were assessed in an in vitro assay evaluating inhibition of cell proliferation. NCI-H524 (ATCC) human lung cancer cells were plated in 96 well, V-bottomed plates (Costar) at a concentration of 5,000 cells/well. 24 hours later, cells were treated with either conjugate for 2 hours and further incubated 70 hours, or for octreotide competition experiments, treated with 100 μM octreotide for 30 min, and then treated with conjugate for 2 hours, and further incubated for 70 hours. Conjugate starting dose was 20 μM and three fold serial dilutions were done for a total of ten points. After 2 hours of treatment, cells were spun down, the drug containing media was removed, and fresh complete medium was added and used to resuspend the cells, which were spun again. After removal of the wash media, the cells were resuspended in complete medium, then transferred into white walled, flat bottomed 96 well plates. […] Proliferation was measured using CellTiter Glo reagent using the standard protocol (Promega) and a Glomax multi+detection system (Promega). Percent proliferation inhibition was calculated using the following formula: % inhibition=(control-treatment)/control*100. Control is defined as vehicle alone. IC50 curves were generated using the nonlinear regression analysis (four parameter) with GraphPad Prism 6.
Conjugates of the present invention were tested for their activity dependence on the somatostatin receptor. Active agent Z in the conjugate was selected from auristatin, carbazitaxel, DM1, doxorubicin, platinum, SN-38 and vinblastine. Active agent Z is connected to octreotide with various linkers. Proliferation IC50 values of the conjugates were measured. Proliferation IC50 values of the conjugates without octreotide competition were also measured. The ratio of IC50 with octreotide competition and IC50 without octreotide competition is an indicator of whether activity is at least partially dependent on bind to the somatostatin receptor.

[1] = treated 2 hours, further incubated 70 hours, read-out: H524 IC50
[2] = read-out: H524 IC50+ 100 uM octreotide, 100 μM octreotide for 30 min, then conjugate 2 hours, 70 hours incubation

CCCCCCCCCCC(CCN[C@H](Cc1ccccc1)C(=O)N[C@H]1CSSC[C@@H](C(=O)N[C@@H](CO)[C@@H](C)O)NC(=O)[C@H]([C@@H](C)O)NC(=O)[C@H](CCCCN)NC(=O)[C@@H](Cc2c[nH]c3ccccc23)NC(=O)[C@H](Cc2ccccc2)NC1=O)SSCCC(=O)N(C)[C@@H](C)C(=O)O[C@H]1CC(=O)N(C)c2cc(cc(OC)c2Cl)C/C(C)=C/C=C/[C@@H](OC)[C@@]2(O)C[C@H](OC(=O)N2)[C@@H](C)[C@@H]2O[C@@]12C (stereo partly drawn) [Conjugate 106]
IC50 [1]: 400 nM | IC50 [2]: 666 nM

COc1cc2cc(c1Cl)N(C)C(=O)C[C@H](OC(=O)[C@H](C)N(C)C(=O)CCSC1CC(=O)N(CC(=O)N[C@H](Cc3ccccc3)C(=O)N[C@H]3CSSC[C@@H](C(=O)N[C@H](CO)[C@@H](C)O)NC(=O)[C@H]([C@@H](C)O)NC(=O)[C@H](CCCCN)NC(=O)[C@@H](Cc4c[nH]c5ccccc45)NC(=O)[C@H](Cc4ccccc4)NC3=O)C1=O)[C@]1(C)O[C@H]1[C@H](C)[C@@H]1C[C@@](O)(NC(=O)O1)[C@H](OC)/C=C/C=C(\C)C2 (stereo partly drawn) [Conjugate 108]
IC50 [1]: 96 nM | IC50 [2]: 1280 nM

COc1cc2cc(c1Cl)N(C)C(=O)C[C@H](OC(=O)[C@H](C)N(C)C(=O)CCSSCCC(=O)NCCCC[C@@H](N)C(=O)N[C@H]1CSSC[C@@H](C(=O)N[C@H](C(=O)O)[C@@H](C)O)NC(=O)[C@H]([C@@H](C)O)NC(=O)[C@H](CCCCN)NC(=O)[C@@H](Cc3c[nH]c4ccccc34)NC(=O)[C@H](Cc3ccc(O)cc3)NC1=O)[C@]1(C)O[C@H]1[C@H](C)[C@@H]1C[C@@](O)(NC(=O)O1)[C@H](OC)/C=C/C=C(\C)C2 [Conjugate 113]
IC50 [1]: 1080 nM | IC50 [2]: 4920 nM

COc1cc2cc(c1Cl)N(C)C(=O)C[C@H](OC(=O)[C@H](C)N(C)C(=O)CCSSC[C@@H](N)C(=O)N[C@H]1CSSC[C@@H](C(=O)N[C@H](C(=O)O)[C@@H](C)O)NC(=O)[C@H]([C@@H](C)O)NC(=O)[C@H](CCCCN)NC(=O)[C@@H](Cc3c[nH]c4ccccc34)NC(=O)[C@H](Cc3ccc(O)cc3)NC1=O)[C@]1(C)O[C@H]1[C@H](C)[C@@H]1C[C@@](O)(NC(=O)O1)[C@H](OC)/C=C/C=C(\C)C2 [Conjugate 119]
IC50 [1]: 2660 nM | IC50 [2]: > 5000 nM

C[C@@H](O)[C@@H]1NC(=O)[C@H](CCCCN)NC(=O)[C@@H](Cc2c[nH]c3ccccc23)NC(=O)[C@H](Cc2ccccc2)NC(=O)[C@@H](NC(=O)[C@H](N)Cc2ccccc2)CSSC[C@@H](C(=O)N[C@H](CO)[C@@H](C)O)NC1=O [Octreotide, octreotide, reference compound]
effect on cell proliferation (octreotide alone): no significant effect
